Assays:
Type in all cases: in vivo
[1] = test system: Echinocloa crus-galli; assay: Herbicidal post-emergence action; settings: greenhouse, 320 g of a.i./ha
Experimental: (§1) 2. Herbicidal Post-emergence Action
(§2) Seeds of monocotyledonous and dicotyledonous weed and crop plants are placed into sandy loam in wood fiber pots, covered with soil and cultivated in the greenhouse under good growth conditions. Two to three weeks after sowing, the test plants are treated at the one-leaf stage. The test compounds, formulated as wettable powders (WP), are then, in various dosages with a water application rate of 600 l/ha (converted), with 0.2% of wetting agent added, sprayed onto the green parts of the plants. After the test plants have been kept in the greenhouse under optimum growth conditions for about 3 weeks, the effect of the preparations is rated visually in comparison to untreated controls (herbicidal effect in percent (%): 100% effect=the plants have died, 0% effect=like control plants).

[2] = test system: Lolium multiflorum; assay: Herbicidal post-emergence action; settings: greenhouse, 320 g of a.i./ha
Experimental: as §1, §2

[3] = test system: Setaria viridis; assay: Herbicidal post-emergence action; settings: greenhouse, 320 g of a.i./ha
Experimental: as §1, §2

[4] = test system: Summer barley; assay: Container trials with cereal in a greenhouse, with and without safener (post-emergence); settings: crop damage; 50 g of a.i./ha; 28 days after application
Experimental: (§3) Herbicidal Post-emergence Action
(§4) Seeds of monocotyledonous and dicotyledonous weed and crop plants are placed into sandy loam in wood fiber pots or in plastic pots, covered with soil and cultivated in a greenhouse, during the vegetation period also outdoors outside of the greenhouse, under good growth conditions. Two to three weeks after sowing, the test plants are treated at the one- to three-leaf stage. The test compounds, formulated as wettable powders (WP) or liquid (EC) are, in various dosages with a water application rate of 300 l/ha (converted), with wetting agent (0.2 to 0.3%) added, sprayed onto the plants and the surface of the soil. Three to four weeks after the treatment of the test plants, the effect of the preparations is rated visually in comparison to untreated controls (herbicidal effect in percent (%):
(§5) (100% effect=the plants have died, 0% effect=like control plants).
(§6) If it is additionally to be tested as to whether safeners can improve the plant compatibility of test substances in the case of crop plants, the following options are used for applying the safener: • seeds of the crop plants are, before sowing, dressed with the safener substance (amount of safener stated in percent, based on the weight of the seed) • before the application of the test substances, the crop plants are sprayed with the safener at a certain application rate per hectare (usually 1 day before the application of the test substances) • the safener is applied together with the test substance as a tank mix (amount of safener stated in g/ha or as a ratio, based on the herbicide).
(§7) By comparing the effect of the test substances on crop plants without or with safener treatment, it is possible to assess the effect of the safener substance.
(§8) Container Trials with Cereal in a Greenhouse
(§9) Mefenpyr 1 Day Prior to Herbicide Application

[5] = test system: Summer wheat; assay: as above; settings: crop damage, 28 days after application
Experimental: as §3, §4, §5, §6, §7, §8, §9

[6] = test system: Avena sativa; assay: Herbicidal pre-emergence action; settings: greenhouse, 320 g of a.i./ha
Text: (§10) 1. Herbicidal Pre-emergence Action
(§11) Seeds of monocotyledonous and dicotyledonous weed and crop plants are placed into sandy loam in wood fiber pots and covered with soil. The test compounds, formulated in the form of wettable powders (WP) are then, as an aqueous suspension with a water application rate of 600 l/ha (converted), with 0.2% of wetting agent added, applied to the surface of the covering soil in various dosages.
(§12) After the treatment, the pots are placed in the greenhouse and kept under good growth conditions for the test plants. The visual assessment of the emergence damage on the test plants is carried out after a trial period of 3 weeks by comparison with untreated controls (herbicidal effect in percent (%): 100% effect=the plants have died, 0% effect=like control plants).

[7] = test system: Lolium multiflorum; assay: Herbicidal pre-emergence action; settings: greenhouse, 320 g of a.i./ha
Text: as §10, §11, §12

[8] = test system: Setaria viridis; assay: Herbicidal pre-emergence action; settings: greenhouse, 320 g of a.i./ha
Text: as §10, §11, §12

CCc1cc(C)cc(OC)c1C1=C(O)C2CCCN2C1=O (stereo not shown) [Example I-a-2]
Echinochloa (herbicidal effect in percent) [1]: 100
Lolium (herbicidal effect in percent) [2]: 100
Setaria (herbicidal effect in percent) [3]: 100
Summer barley observed (%) [4]: 90%
Summer wheat observed (%) ([5]; 12.5 g of a.i./ha): 40%
Summer wheat observed (%) ([5]; 25 g of a.i./ha): 60%
Summer wheat observed (%) ([5]; 50 g of a.i./ha): 95%

CCc1cc(C)cc(OC)c1C1=C(O)C2(CCC(OC)CC2)NC1=O (single isomer, unassigned) [Example I-a-6]
Avena (herbicidal effect in percent) [6]: 100
Lolium (herbicidal effect in percent) [7]: 100
Setaria (herbicidal effect in percent) [8]: 100
Echinochloa (herbicidal effect in percent) [1]: 100
Lolium (herbicidal effect in percent) [2]: 100
Setaria (herbicidal effect in percent) [3]: 90
